In article PMC4109680, “Identification and Preclinical Pharmacology of the γ-Secretase Modulator BMS-869780” (International Journal of Alzheimer's Disease, 2014):

Assays:
[1] = tested on: rat brain APP-CTFβ and APP-CTFα; assay: Immunoprecipitation and western blot of APP-CTFβ and APP-CTFα from rat brain; format: in vivo; details: oral doses 1.9-235 mg/kg, 24 hours
Procedure: Rats were given oral doses of BMS-869780, and levels of brain Aβ, βCTF, and αCTF were determined 24 hours later. For comparison, BMS-698861 was dosed in a separate experiment and samples were taken 5 hours later. (a) Brain levels of Aβ1-42 (red), Aβ1-40 (green), Aβ1-38 (blue), and Aβ1-37 (purple) are shown as bars stacked upon one another. The total height of each bar therefore represents the sum of the four peptides. (b) Aβ1-42 (red—left Y axis) and Aβ1-x (grey—right Y axis). The same results for Aβ1-42 are plotted in both (a) and (b). (c) Rat brain βCTF was detected by western blotting of immunoprecipitates from samples of the same rat brains used for Aβ determinations. V, vehicle groups; results from rats dosed with 1.9, 22, 100, and 235 mg/kg of BMS-869780 and 10 mg/kg BMS-698861 (GSI) are indicated. (d) Western blots of immunoprecipitated αCTF from the same rat brain samples. (e) and (f) quantification of western blots shown in (c) and (d), respectively, expressed relative to percent of average level of CTF in vehicle-treated rats. Actual doses of BMS-869780 were determined by analysis of concentrations in left-over dosing solutions. […]

Aβ peptides (H4-APPsw) = assay: Aβ peptide profile in H4-APPsw cultures by MALDI-TOF mass spectrometry and urea gel western blot; format: cell-based, human
Procedure: For western blotting of Aβ peptides from H4-APPsw cell cultures, Aβ was immunoprecipitated directly from the cell culture medium and was eluted from the protein G beads by addition of lithium dodecyl sulfate (LDS) electrophoresis sample buffer (Invitrogen). Aβ peptides were separated by gel electrophoresis in the presence of 8 M urea, transferred to PVDF membrane, and detected by western blotting using monoclonal 26D6-HRP conjugate.
H4-APPsw cell cultures were grown in T-75 flasks until 75% confluent and rinsed with Dulbecco's phosphate buffered saline (DPBS; Gibco cat number 14109), and 20 mL of DMEM supplemented with L-glutamine (2 mM), geneticin, penicillin, streptomycin, and DMSO with or without BMS-869780 was added (final concentration of DMSO was 0.2%). After incubation for 24 hours at 37°C in 5% CO2, culture medium was removed, centrifuged to remove cells, and frozen in aliquots at −80°C. For immunoprecipitation, aliquots of cell medium (4 mL) were thawed, followed by the addition of protease inhibitor cocktail (Sigma P-8340) to a final concentration of 1%, 60 ng of [^15N]-Aβ1-40 synthetic peptide (rPeptide, 1101-1, Athens, GA), 30 μg of monoclonal 26D6, and 15 μg of monoclonal 4G8. After incubation for 20 min on ice, 80 μL of protein G agarose beads (Pierce Rockford, IL) was added, and incubation was continued overnight at 4°C. […]
Figure 3 BMS-869780 increased the levels of the shorter peptides Aβ1-38 and Aβ1-37. (a) Top panel: an equimolar mix of synthetic peptides Aβ1-37, Aβ1-38, Aβ1-39, Aβ1-40, [^15N]-Aβ1-40, and Aβ1-42 was evaluated by MALDI-TOF mass spectrometry. H4-APPsw cell cultures were treated with vehicle (0.1% DMSO—middle panel) or BMS-869780 (100 nM—bottom panel), [^15N]-Aβ1-40 was added, and Aβ peptides were immunoprecipitated and evaluated by MALDI-TOF mass spectrometry. […] Aβ peptides were separated by gel electrophoresis in the presence of urea and detected by western blotting. […]

## COc1cc(Nc2nc3n(n2)CCCC[C@H]3c2ccc(F)cc2)ccc1-n1cnc(Cl)c1 [BMS-869780]
[1]
  rat brain APP-CTFβ and APP-CTFα levels: Neither APP-CTFβ nor APP-CTFα levels were affected
Aβ peptides (H4-APPsw); 100 nM
  Aβ1-37 and Aβ1-38 levels by MALDI mass spectrometry: dramatically increased
  Aβ1-40 and Aβ1-42 levels by MALDI mass spectrometry: essentially undetectable
Aβ peptides (H4-APPsw); 100 nM and 10 nM
  Aβ1-37 and Aβ1-38 levels by western blot: Increased levels
